Experimental data: US20240161653A1, “IN VITRO MODEL DEVICE FOR PLACENTAL BARRIER” (CFD Research Corporation, priority 2022, published 2024)
Structures can show the parent of a compound that is named as a salt.

Assays:
[1] = system: placental barrier of the in vitro placenta device (coculture of Bewo trophoblasts and HUVEC); assay: Maternal-placental size exclusion permeability assay in the in vitro placenta device; format: in vitro ADME, human; conditions: injected into maternal vascular channel at 0.1 μL/min for 1 hour; PI = ratio of sum ROIs trophoblast to maternal vascular channel; FIG. 9B
Procedure: Again, devices can be placed in the incubator.
In another example, one embodiment of the present invention was used to evaluate maternal-placental size exclusion, where a fluorescein sodium salt (FSS) solution was injected into the maternal vascular channel at 0.1 μL/min for 1 hour. […] PI was expected to decrease as a function of compound molecular weight.

[2] = system: trophoblast channel cells; assay: Cytotoxicity by adenylate kinase release (luminescence), samples from trophoblast channel; format: cell-based; conditions: luminescence plate reader, FIG. 11
Procedure: Following exposure, FSS was injected into the maternal channel and permeability assayed. Permeability in the devices was 10-fold higher in trypan blue treated devices compared to controls. An additional assay was performed to determine cytotoxicity as it relates to the release of adenylate kinase. A positive control (100% death by lysis buffer) and a negative control (media only) were included for comparison. Samples were taken from the trophoblast channel and placed in a low volume, white walled […] plate for luminescence analysis using a plate reader. […] The increase in AK release in arbitrary luminescence units compares the toxic exposure of trypan blue to positive and negative controls.

[3] = system: intervillous space-trophoblast barrier; assay: Morphological effects of toxic exposure in the in vitro placenta device; format: cell-based; conditions: injected into maternal channel at 3 μL/min for 4 min, then incubated at 37° C. for 15 min; FIG. 10
Source text: In some embodiments, the in vitro placental model device can be used for studying toxicity of test agents to the placenta. Certain compounds not only induce fetal toxicity upon crossing the placental barrier, but also disrupt the barrier itself. The microfluidic placental barrier model can be used to study response to toxic exposure of test agents. The impact to barrier function can be assessed through permeability comparisons and toxicity (e.g., cytotoxicity, etc.) can be assessed off chip by various methods (e.g., cell lysate luminescence assay, genomic analysis, etc.).
For example, an in vitro placenta device was exposed to trypan blue by injection into the maternal channel at 3 μL/min for 4 min and then incubated at 37° C. for 15 min, similar to protocols in literature^7.8. […] White arrows show barrier degradation, and dark arrows show apoptosis following trypan blue exposure.

SMILES	increase in average PI compared to 4 kD TRITC-dextran [1] [fold]	increase in adenylate kinase release [2] [fold]	morphological effects of exposure at the intervillous space-trophoblast barrier [3]
O=C1OC2(c3ccc(O)cc3Oc3cc(O)ccc32)c2ccccc21 [FSS, fluorescein sodium salt]	~2		
Cc1cc(-c2ccc(/N=N/c3c(S(=O)(=O)O)cc4cc(S(=O)(=O)O)cc(N)c4c3O)c(C)c2)ccc1/N=N/c1c(S(=O)(=O)O)cc2cc(S(=O)(=O)O)cc(N)c2c1O [trypan blue]		1.5	evidence of barrier degradation (e.g., cell death and detachment) and apoptosis
